Measurements: US11000033B2, “Ketone or oxime compound, and herbicide” (NISSAN CHEMICAL CORPORATION, priority 2014, dated 2021)

Experiments:
Assay type in all cases: in vivo
[1] = test system: directly sowed rice plant; test: Test Example 3: effect on crop by foliage application, Wagner pot (symbol b); settings: application herbicide amount 320 g/ha
Method in brief: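 Wagner pot (1/10000 are), alluvial soil, submerged 0.1–0.5 cm; sown E. crus-galli var. crus-galli, L. chinensis, C. difformis, rice; greenhouse 25–30 °C.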

soybean = test: Test Example 4: effect on crop by soil treatment (symbol d); settings: 320 g/ha
Method in brief: (§1)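 Plants are raised in a greenhouse (25° C. to 30° C.) from spot-sown seed, which sits under about 1.5 cm of sterilized diluvial soil in a box shared with weed species.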

[2] = test system: Echinochloa crus-galli var. crus-galli; test: Test Example 3: herbicidal effect by foliage application, Wagner pot (symbol H); settings: application herbicide amount 320 g/ha
Method in brief: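 In a shallow-flooded alluvial soil system held at 25–30 °C, plants including rice grew for 14 days and were then sprayed over the foliage with emulsion diluted to a fixed herbicide amount. Visual rating followed at 3 weeks.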

Setaria viridis = test: Test Example 4: herbicidal effect by soil treatment (symbol G); settings: 320 g/ha
Method in brief: (§2)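 Seeds were sown in sterilized diluvial soil, covered with about 1.5 cm of soil, and the soil surface was sprayed with a water-diluted emulsion of the compound at a predetermined rate. Plants grew in a greenhouse at 25° C. to 30° C.; effects were scored visually 3 weeks after application.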

[3] = test system: Echinochloa oryzacola Vasing.; test: Test Example 2: herbicidal activity, application during weed generation in submerged conditions (symbol A); settings: Table 23; application herbicide amount 320 g/ha; grade 0-5 by criteria of Test Example 1
Method in brief: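 Compound was applied as a water-diluted emulsion into the standing water of flooded pots (4 cm) once co-sown weeds reached one to two leaves. Greenhouse temperature was 25° C. to 30° C., soil was alluvial, and each species was rated visually after 3 weeks.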

rapeseed = test: Test Example 4: effect on crop by soil treatment (symbol g); settings: 320 g/ha
Method in brief: as §1

corn = test: Test Example 4: effect on crop by soil treatment (symbol c); settings: 320 g/ha
Method in brief: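 Sterilized diluvial soil, spot sowing, ~1.5 cm soil cover; greenhouse 25–30° C.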

wheat = test: Test Example 5: effect on crop by foliage application, plastic box (symbol e); settings: 320 g/ha, 3 weeks after application
Method in brief: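 Foliage-application test plants come from spot sowing in sterilized diluvial soil under a soil layer of about 1.5 cm, grown at 25° C. to 30° C. in a greenhouse.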

Avena fatua = test: Test Example 5: herbicidal effect by foliage application, plastic box (symbol I); settings: 320 g/ha, 3 weeks after application
Method in brief: (§3)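 Post-emergence spray; diluvial soil (sterilized), ~1.5 cm seed cover; greenhouse 25–30° C; 14-day-old plants; water-diluted emulsion at predetermined dose; visual score at 3 wk post-treatment.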

Lolium multiflorum Lam. = test: Test Example 4: herbicidal effect by soil treatment (symbol K); settings: 320 g/ha
Method in brief: as §2

Stellaria media = test: Test Example 5: herbicidal effect by foliage application, plastic box (symbol P); settings: 320 g/ha, 3 weeks after application
Method in brief: as §3

CON=C(C)CC1CC(OC(=O)c2ccc(C(F)(F)F)cc2)=C(c2c(C)cc(C)cc2C)C1=O (stereo not drawn) [1-149] was tested, and the “effect on crop b (directly sowed rice plant), grade 0-5” value (shortened to “effect on crop b”) [1] was 5 (Herbicidal ratio of 90% or more (almost completely withered)), the “d: soybean, effect grade on crop” value (soybean) was 0 (Herbicidal ratio of 5% or lower (almost no effect)) and the “herbicidal effect on H (Echinochloa crus-galli var. crus-galli), grade 0-5” value (“herbicidal effect on H” below) [2] was 5 (Herbicidal ratio of 90% or more (almost completely withered)). The “G: Setaria viridis, herbicidal effect grade” value (from here on “G: Setaria viridis”) (Setaria viridis) was 5 (Herbicidal ratio of 90% or more (almost completely withered)), the “Herbicidal effect grade, A: Echinochloa oryzacola Vasing.” value [3] was 5 (Herbicidal ratio of 90% or more (almost completely withered)) and the “g: rapeseed, effect grade on crop” value (rapeseed) was 4 (Herbicidal ratio of 70% or higher and lower than 90%). For the same compound, the “c: corn, effect grade on crop” value (corn) was 2 (Herbicidal ratio of 20% or higher and lower than 40%), the “e: wheat, effect on crop (criteria 0-5)” value (wheat) was 5 (Herbicidal ratio of 90% or more (almost completely withered)) and the “I: Avena fatua, herbicidal effect (criteria 0-5)” value (“I: Avena fatua, herbicidal effect” for short) (Avena fatua) was 5 (Herbicidal ratio of 90% or more (almost completely withered)). The “K: Lolium multiflorum Lam., herbicidal effect grade” value (Lolium multiflorum Lam.) was 5 (Herbicidal ratio of 90% or more (almost completely withered)) and the “P: Stellaria media, herbicidal effect (criteria 0-5)” value (“P: Stellaria media” below) (Stellaria media) was 3 (Herbicidal ratio of 40% or higher and lower than 70%).

CON=C(C)CC1CC(OC(=O)N2CCCC2)=C(c2c(C)cc(C)cc2C)C1=O (stereo not drawn) [1-150] was tested, and the “effect on crop b” value [1] was 5 (Herbicidal ratio of 90% or more (almost completely withered)), the “d: soybean, effect grade on crop” value (soybean) was 0 (Herbicidal ratio of 5% or lower (almost no effect)) and the “herbicidal effect on H” value [2] was 5 (Herbicidal ratio of 90% or more (almost completely withered)). For the same compound, the “G: Setaria viridis” value (Setaria viridis) was 0 (Herbicidal ratio of 5% or lower (almost no effect)), the “Herbicidal effect grade, A: Echinochloa oryzacola Vasing.” value [3] was 5 (Herbicidal ratio of 90% or more (almost completely withered)) and the “g: rapeseed, effect grade on crop” value (rapeseed) was 0 (Herbicidal ratio of 5% or lower (almost no effect)). The “c: corn, effect grade on crop” value (corn) was 0 (Herbicidal ratio of 5% or lower (almost no effect)), the “e: wheat, effect on crop (criteria 0-5)” value (wheat) was 4 (Herbicidal ratio of 70% or higher and lower than 90%) and the “I: Avena fatua, herbicidal effect” value (Avena fatua) was 5 (Herbicidal ratio of 90% or more (almost completely withered)). For the same compound, the “K: Lolium multiflorum Lam., herbicidal effect grade” value (Lolium multiflorum Lam.) was 5 (Herbicidal ratio of 90% or more (almost completely withered)) and the “P: Stellaria media” value (Stellaria media) was 0 (Herbicidal ratio of 5% or lower (almost no effect)).

For CON=C(C)CC1CC(OC(=O)N2CCN(C)CC2)=C(c2c(C)cc(C)cc2C)C1=O (stereo not drawn) [1-152], the “effect on crop b” value [1] was 5 (Herbicidal ratio of 90% or more (almost completely withered)), the “d: soybean, effect grade on crop” value (soybean) was 0 (Herbicidal ratio of 5% or lower (almost no effect)) and the “herbicidal effect on H” value [2] was 5 (Herbicidal ratio of 90% or more (almost completely withered)). The “G: Setaria viridis” value (Setaria viridis) was 0 (Herbicidal ratio of 5% or lower (almost no effect)), the “Herbicidal effect grade, A: Echinochloa oryzacola Vasing.” value [3] was 2 (Herbicidal ratio of 20% or higher and lower than 40%) and the “g: rapeseed, effect grade on crop” value (rapeseed) was 0 (Herbicidal ratio of 5% or lower (almost no effect)). The “c: corn, effect grade on crop” value (corn) was 0 (Herbicidal ratio of 5% or lower (almost no effect)), the “e: wheat, effect on crop (criteria 0-5)” value (wheat) was 3 (Herbicidal ratio of 40% or higher and lower than 70%) and the “I: Avena fatua, herbicidal effect” value (Avena fatua) was 4 (Herbicidal ratio of 70% or higher and lower than 90%). The “K: Lolium multiflorum Lam., herbicidal effect grade” value (Lolium multiflorum Lam.) was 2 (Herbicidal ratio of 20% or higher and lower than 40%) and the “P: Stellaria media” value (Stellaria media) was 0 (Herbicidal ratio of 5% or lower (almost no effect)).
